Assay results published in patent US20240041042A1, “1-(PYRIDYL)-5-AZINYLPYRAZOLE DERIVATIVES, AND THEIR USE FOR CONTROL OF UNDESIRED PLANT GROWTH” (Bayer Aktiengesellschaft, priority 2020, published 2024).
Like-named read-outs stand apart in the source and are kept apart here.

What was measured:
Type in all cases: in vivo
[1] = test system: Alopecurus myosuroides (ALOMY); assay: Post-emergence herbicidal action against ALOMY; conditions: 320 g/ha, visual rating about 3 weeks after treatment vs untreated controls (100% = plants have died, 0% = like control plants)
In short: (§1)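 Doses of 320 g/ha or lower, suffixes a, b and c marking different dosages, were applied post-emergence at the one-leaf stage in 600 l/ha water with 0.5% additive. Damage was assessed visually after about 3 weeks in the greenhouse.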

[2] = test system: Digitaria sanguinalis (DIGSA); assay: Post-emergence herbicidal action against DIGSA; conditions: visual rating about 3 weeks after treatment
Procedure: Seeds of monocotyledonous and dicotyledonous weeds and crop plants are placed in sandy loam in plastic or organic planting pots, covered with soil and cultivated in a greenhouse under controlled growth conditions. 2 to 3 weeks after sowing, the test plants are treated at the one-leaf stage. The compounds of the invention, formulated in the form of wettable powders (WP) or as emulsion concentrates (EC), are then sprayed onto the green parts of the plants as aqueous suspension or emulsion with addition of 0.5% additive at a water application rate of 600 l/ha (converted). After the test plants have been kept in the greenhouse under optimum growth conditions for about 3 weeks, the activity of the preparations is rated visually in comparison to untreated controls. For example, 100% activity=the plants have died, 0% activity=like control plants.
Tables B1 to B13 below show the effects of selected compounds of the general formula (I) according to Table 1 on various harmful plants and at an application rate corresponding to 320 g/ha or lower, which were obtained by the experimental procedure mentioned above. The appendices “a”, “b” and “c” give differentiation by dosage used with otherwise the same harmful plants tested.

[3] = test system: Echinochloa crus-galli (ECHCG); assay: Post-emergence herbicidal action against ECHCG
In short: as §1

Lolium rigidum (LOLRI) = assay: Post-emergence herbicidal action against LOLRI
In short: as §1

[4] = test system: Pharbitis purpurea (PHBPU); assay: Post-emergence herbicidal action against PHBPU
In short: as §1

[5] = test system: Polygonum convolvulus (POLCO); assay: Post-emergence herbicidal action against POLCO
In short: as §1

Setaria viridis (SETVI) = assay: Post-emergence herbicidal action against SETVI
In short: as §1

[6] = test system: Verconica persica (VERPE); assay: Post-emergence herbicidal action against VERPE
In short: as §1

Viola tricolor (VIOTR) = assay: Post-emergence herbicidal action against VIOTR
In short: as §1

Oryza sativa (ORYSA) = conditions: crop plant compatibility
In short: (§2)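 Test crops were treated 2 to 3 weeks after sowing, once they reached one leaf, by spraying compound in water with 0.5% additive at 600 l/ha. Visual scoring compared them with untreated controls roughly 3 weeks on, and appendices a, b and c denote different doses.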

Zea mays (ZEAMX) = conditions: for Post-emergence action against ZEAMX in % (crop plant compatibility): 20 g/ha, effect in comparison to untreated controls; for Post-emergence action against ZEAMX in %: crop plant compatibility, effect vs untreated controls
In short: as §2

Avena fatua (AVEFA) = assay: Post-emergence herbicidal action against AVEFA; conditions: visual rating about 3 weeks after treatment
In short: as §1

[7] = test system: Abutilon theophrasti (ABUTH); assay: Post-emergence herbicidal action against ABUTH; conditions: 320 g/ha, visual rating about 3 weeks after treatment vs untreated controls (100% = plants have died, 0% = like control plants)
In short: as §1

[8] = 20 g/ha, effect vs untreated controls
[9] = 80 g/ha, effect in comparison to untreated controls

| Structure (SMILES) | Post-emergence action against ALOMY in % [1] | Post-emergence action against DIGSA in % ([2]; 80 g/ha) | Post-emergence action against DIGSA in % ([2]; 320 g/ha) | Post-emergence action against ECHCG in % ([3]; dosage 80 g/ha) | Post-emergence action against ECHCG in % ([3]; dosage 320 g/ha) | Post-emergence action against LOLRI in % (Lolium rigidum (LOLRI); dosage 320 g/ha) | Post-emergence action against PHBPU in % ([4]; dosage 320 g/ha) | Post-emergence action against POLCO in % ([5]; dosage 320 g/ha) | Post-emergence action against SETVI in % (Setaria viridis (SETVI); dosage 80 g/ha) | Post-emergence action against SETVI in % (Setaria viridis (SETVI); dosage 320 g/ha) | Post-emergence action against VERPE in % ([6]; 320 g/ha, VERPE) | Post-emergence action against VERPE in % ([6]; dosage 80 g/ha) | Post-emergence action against VIOTR in % (Viola tricolor (VIOTR); 320 g/ha) | Post-emergence action against ORYSA in % (Oryza sativa (ORYSA); [8]) | Post-emergence action against ORYSA in % (Oryza sativa (ORYSA); [9]) | Post-emergence action against ZEAMX in % (crop plant compatibility) (Zea mays (ZEAMX)) | Post-emergence action against ZEAMX in % (Zea mays (ZEAMX); 80 g/ha) | Post-emergence action against AVEFA in % (Avena fatua (AVEFA); 80 g/ha) | Post-emergence action against AVEFA in % (Avena fatua (AVEFA); 320 g/ha) | Post-emergence action against PHBPU in % ([4]; dosage 80 g/ha) | other results |
| --- | --- | --- | --- | --- | --- | --- | --- | --- | --- | --- | --- | --- | --- | --- | --- | --- | --- | --- | --- | --- | --- |
| COC(=O)CCOC(=O)[C@@H](C)Oc1nn(-c2ccccn2)c(-c2ccc(F)nc2)c1Br [Example I-290] | 90% | 90% | 90% | 80% | 90% | 80% | 90% | 80% | 90% | 90% | 80% | 80% | 80% | 0% | 10% | 0% | 10% |  |  |  |  |
| COC(=O)C(C)COC(=O)COc1nn(-c2ncccc2F)c(-c2ccc(F)nc2)c1C1CC1 (stereo not drawn) [Example I-382] | 90% | 80% | 90% | 80% | 90% | 90% | 80% | 80% | 90% | 90% | 80% | 80% | 90% | 0% | 10% | 0% | 20% | 90% | 90% | 80% | Post-emergence action against VIOTR in % (Viola tricolor (VIOTR); 80 g/ha): 80% |
| CCOC(=O)[C@@H](C)Oc1nn(-c2ncccc2F)c(-c2ccnc(F)c2)c1Br [Example I-133] | 90% |  | 80% |  | 90% | 90% | 80% | 80% |  | 80% | 80% | 80% | 90% | 0% | 10% | 0% | 0% |  | 80% |  | Post-emergence action against ABUTH in % [7]: 80%; Post-emergence action against POLCO in % ([5]; dosage 80 g/ha): 80%; Post-emergence action against VIOTR in % (Viola tricolor (VIOTR); 80 g/ha): 80%; Post-emergence action against ZEAMX in % (Zea mays (ZEAMX); 320 g/ha): 20% |
| COC(=O)C(C)OC(=O)C(C)Oc1nn(-c2ccccn2)c(-c2ccc(F)nc2)c1Br (stereo not drawn) [Example I-288] | 90% | 80% | 90% |  | 80% | 80% | 90% | 80% | 90% | 90% | 80% | 80% | 80% | 0% | 10% |  |  | 80% | 90% | 80% | Post-emergence action against LOLRI in % (Lolium rigidum (LOLRI); dosage 80 g/ha): 80% |
